Laboratory results published in patent US20060014801A1, “Prevention and treatment of cognitive impairment using (R)-(-)-5-methyl-1-nicotynoyl-2-pyrazoline (MNP) and analogs” (The Johns Hopkins University, priority 2002, published 2006).

Key:
GLT1B = experiment: Western blot of GLT1B protein expression in hippocampus of young rats after 7 days s.c. MNP; type: in vivo, Long-Evans rats; settings: 50 mg/kg/day s.c. minipump
Method: Administration of MNP: Twelve young Long-Evans rats, weighing approximately 400-500 grams, received treatment with either vehicle (0.9% saline; n=6) or MNP (50 mg/kg/day; n=6). The rats were administered MNP and vehicle continuously for one week via an osmotic minipump (Alzet, model 2ML1) implanted subcutaneously on the back, slightly posterior to the scapulae. After 7 days of treatment, the rats were sacrificed, their brains were removed, the hippocampi dissected out, frozen on dry ice and sent for Western blot analysis. The implanted minipump was also removed to verify proper drug delivery by measuring residual volume.
Preparation of brain tissue; Hippocampi were homogenized in 2 ml sucrose buffer (20 mM Tris pH 7.4, 10% sucrose, complete protease inhibitor cocktail mini-tablets [Roche cat#1-836-153]) for 25 seconds (Omni 115V Tissue Homogenizer TH-115). SDS (at 2%) was immediately added to the homogenate, and the samples were sonicated (Branson Sonifier 250; 10 pulses each). Extracts were total cellular extracts solubilized in SDS and include both cytoplasmic and membrane-bound GLT1.
Western blot analysis: Immunoblotting was performed using a LICOR Odyssey based system which uses IRDye 800 and Alexa Fluor 680 labeled secondary antibodies and signal is detected by diode lasers sensitive to infrared emissions of different wavelength. […]

aged impaired (AI) rats = type: in vivo; settings: 50 mg/kg/day s.c. minipump
Method: Spatial memory version of the Morris water maze: Behavioral testing is conducted by an experimenter who is blind to drug treatment. Fourteen 25-27 month-old Long-Evans rats, previously characterized as cognitively impaired (AI rats), were tested in a modified version of the Morris water maze (MWM) task using the same MWM apparatus as described above. Unlike the traditional protocol wherein the platform location remained constant throughout training, the escape platform location in this spatial memory version of the task varied from day-to-day (in one of nine different positions).
AI rats were given six training trials per day with a 60-sec intertrial interval. On each training trial, the rat was released in the maze from one of four equally spaced starting positions around the perimeter of the pool. […] Following the six training trials, the rat is returned to its home cage and placed in the animal housing room. After a delay of four hours, the rat is given one additional testing trial (the “retention trial”) with the escape platform located in the same position as in the 6 training trials. The length of the rat's swim path to reach the escape platform is measured in all six training trials and the retention trial. Spatial memory in this task is measured by comparing the swim path lengths in the retention trial with the sixth (and final) training trial. […] A greater difference in performance in these two trials represents a greater degree of forgetting. After two days of acclimation to these procedures, this test protocol is given for nine consecutive days, with the position of the escape platform moved daily.
MNP enhances the cognitive performance of aged rats in the spatial memory version of the MWM: Following characterization for cognitive status with a traditional MWM protocol, impaired aged rats were assigned to one of two treatment conditions (vehicle controls or MNP). […] AI rats were pretreated with either vehicle or MNP for 9 days prior to behavioral testing. Osmotic minipumps (Alzet) were filled with either vehicle (0.9% saline) or MNP (50 mg/kg/day) and implanted subcutaneously. Initially, Alzet pumps that administer compound for one week were implanted; after seven days, these pumps (now empty) were removed and replaced with full two-week pumps allowing delivery of either MNP or saline for a total of 21 days. On Day 9 of treatment with either vehicle or MNP, MWM testing was begun. Data were collected in two replications with vehicle- and drug-treated rats represented in each. A total of 9 vehicle-treated and 5 MNP-treated rats completed the entire protocol. Several rats in both treatment groups, however, died during the execution of the study. […]

rat = experiment: Other behavioral measures in the rat; type: in vivo; settings: 10 mg/kg/day

C[C@@H]1CC=NN1C(=O)c1cccnc1 [MNP, (R)-(−)-5-methyl-1-nicotinoyl-2-pyrazoline]
GLT1B immunoreactivity compared to vehicle controls (GLT1B): no difference
Difference in performance between final training trial and retention trial (aged impaired (AI) rats; 4-hour delay): no significant difference in performance
Performance in retention trials vs vehicle-treated controls (aged impaired (AI) rats; 4-hour delay, Days 9-11 of treatment): performed significantly better
Savings scores (memory for the platform location) vs vehicle-treated controls (aged impaired (AI) rats; Mann Whitney U test p<0.05): significantly better than vehicle-treated controls
Performance on training trials 1-6 vs vehicle group (aged impaired (AI) rats; two-way analysis of variance): no significant difference between the groups
Efficacy in other behavioral measures in the rat (rat): efficacious
